# Experimental data published in patent US20230220122A1, “METHOD FOR PRODUCTION OF FUNCTIONAL POLYSACCHARIDE AND COSMETIC COMPOSITION” (CARBOEXPERT INC., priority 2019, published 2023).
# “And” between values parts separate entries of the source, which are not always exact repeats. Equal values may be shown once.
# System: BALB/3T3 clone A31
# Experiment: in vitro 3T3 NRU phototoxicity test
# Type: cell-based
# Conditions: for PIF (Photo irritation factor): calculated from IC50 with and without UV (Phototox 2.6)
# Procedure: This test was to evaluate phototoxicity after treating cells of BALB/3T3 clone A31 with a sample in the in vitro 3T3 NRU phototoxicity test. The phototoxicity was identified by evaluating cell viability, IC50 according to the presence or absence of light irradiation, and phototoxicity according to concentration response [photo irritation factor (PIF), and mean photo effect (MPE)].
# In addition, as a negative control group, PBS diluted in DMEM was used.
# Each of test substances was dissolved in PBS and diluted in steps at […] 2.
# UVA (315-400 nm) causing a phototoxic reaction by activating chemical materials without toxicity to cells was irradiated, and the amount of light was 5 J/cm^2.
# 100 μl of cell suspension (1×10^4 cells/well) and medium were dispensed into two 96 well plates per group, and the cells were cultured for 24 hours in a cell incubator at 37° C. and 5% CO^2.
# After removing the medium, the cells were washed once with 150 μl of warm PBS.
# The UV irradiation plate was irradiated with UVA at a light intensity of 5 J/cm^2, and while UV was irradiated, the non-irradiated plate was shielded with aluminum foil and left at room temperature. After removing the solution, washing was performed twice with 150 μl of warm PBS. 100 μl of the medium was dispensed and the cells were cultured for 20±2 hours in a cell incubator at 37° C. and 5% CO2.
# The growth and morphology of the cells were observed using a microscope, the medium was removed therefrom, and then the cells were washed once with 150 μl of warm PBS. After dispensing 100 μl of neutral red medium, the cells were incubated for 3 hours in a cell incubator at 37° C. and 5% CO2. After removing the neutral red medium, the cells were washed once with 150 μl of warm PBS. 150 μl of neutral red extract was dispensed, and the plate was stirred for 10 minutes while light was shielded.
# Absorbance was measured at a wavelength of 540 nm by using a multi-channel microplate reader.
# Phototoxicity was judged by calculating PIF and MPE values using IC50 according to the presence or absence of light irradiation.
# PIF and MPE values were calculated from the measured absorbance values by using the software (Phototox 2.6, ZEBET at the BFR, Berlin Germany), and no statistical method was performed.
smiles,measurement,setting,value
CN(C)CCCN1c2ccccc2Sc2ccc(Cl)cc21 [CPZ],Cell viability (% of NC),"UV (+), 0.04 μg/mL",102.67 % of NC
same,Cell viability (% of NC),"UV (+), 0.08 μg/mL",89.09 % of NC
same,Cell viability (% of NC),"UV (+), 0.16 μg/mL",98.75 % of NC
same,Cell viability (% of NC),"UV (+), 0.31 μg/mL",106.73 % of NC
same,Cell viability (% of NC),"UV (+), 0.63 μg/mL",103.10 % of NC
same,Cell viability (% of NC),"UV (+), 2.5 μg/mL",11.51 % of NC
same,Cell viability (% of NC),"UV (+), 5 μg/mL",12.32 % of NC
same,"IC50 (50% inhibitory concentration, cell viability)","UV (+), UVA 5 J/cm^2, listed as PC",1.650 µg/mL
same,Cell viability (% of NC),"UV (−), 1.56 μg/mL",109.65 % of NC
same,Cell viability (% of NC),"UV (−), 3.13 μg/mL",103.07 % of NC
same,Cell viability (% of NC),"UV (−), 6.25 μg/mL",114.87 % of NC
same,Cell viability (% of NC),"UV (−), 25 μg/mL",65.55 % of NC
same,Cell viability (% of NC),"UV (−), 50 μg/mL",9.50 % of NC
same,Cell viability (% of NC),"UV (−), 100 μg/mL",9.37 % of NC
same,Cell viability (% of NC),"UV (−), 200 μg/mL",9.31 % of NC
same,"IC50 (50% inhibitory concentration, cell viability)","UV (−), UV not irradiated, listed as PC",28.043 µg/mL
same,PIF (Photo irritation factor),listed as PC,17.144
same,PIF (Photo irritation factor),listed as positive control material,17.1444 and 17.144
same,MPE (Mean photo effect),calculated from concentration response with and without UV (Phototox 2.6),0.459
